The results in this text go back to article PMC10850501 (Nature Communications, 2024).

In series [1] the test system is SARS-CoV-2 live virus (B.1 lineage), Vero E6 cells. In kind it is cell-based.
Another series can be described thus: Cytocompatibility (CCK8). In kind it is cell-based, human. As to conditions: human, A549 cells, read-out: cytocompatibility, normalized to serum free media; for viability at 6 h, 10 µM: 0.01 mM peptide; for viability at 6 h, 100 µM: 0.1 mM peptide; for viability at 6 h, 1000 µM: 1 mM peptide. As to the method: (§1) Cytocompatibility of the peptides was evaluated at 1, 0.1, and 0.01 mM with A549 cells (ATCC CCL-185) cultured in complete media consisting of 90% F-12K and 10% FBS. The A549 cells were utilized after their first passage and seeded at 10,000 cells/well in a 96-well plate for 24 hours. The conditions were prepared in serum-free A549 media and introduced into the wells for 6 hours, after which the condition media were aspirated, the wells were washed once with PBS, and 10 µL of CCK8 was added to 100 µL of PBS[32]. The plate was incubated for 1 hour and read on a Tecan M200 Infinite plate reader at an absorbance of 450 nm with a reference wavelength of 650 nm. The results were analyzed and normalized to the serum-free media control[28],[32],[76].

For another series, the system named is A549 cells. The series is described as follows: Cytocompatibility (CCK8). The series is classed as cell-based, human. Conditions: human alveolar epithelial A549 cells; 0.01-1 mM. The method, then: as §1
Series [2] is described as follows: Acute IV pharmacokinetics. Conditions: ESBP3 200μL (10 mg/mL) IV bolus, Wistar rats (n=8). In kind it is in vivo, rat (female Wistar). As to the method:
Female Wistar rats (225–250 g, 8–12 weeks old) were observed and acclimatized for 2 weeks prior to running the studies. They were housed in a controlled environment with temperature at […] and 40–70% humidity. They were kept in an alternating 12-hour light/dark cycle, and food, and water was provided as pellets ad libitum. Female Wistar Rats were used for the pharmacokinetics and the drug clearance analysis from the blood. The two hydrogels (ESBP2 and ESBP3) at 10 mg/ml concentration were injected into the rats via the lateral tail vein. For subcutaneous implants, the substance was injected between the shoulder blades and above the lumbar vertebrae, 200 μL each, using a 25-gauge needle. The hydrogel bolus was prepared with 0.9% saline and was injected within 1–2 minutes. The volume injected was approximately 1% of the total body weight of the rat, which was calculated prior to the dosing. The initial blood draw was performed for baseline, and the subsequent blood collection was performed from the lateral vein using 25 g butterfly needles.
Rat blood samples were collected at 0, 5, 15, 30 minutes, and 1, 2, 4, 8, and 24 hours post-injection timepoints for Acute PK and were aliquoted out into heparinized tubes to prevent coagulation and stored on top of ice packs. Blood collected in K2EDTA anticoagulant tubes was processed to plasma frozen via centrifugation at 13000 RCF for 10 minutes at 4 °C and stored at −80 °C till analysis using HPLC. The body weight was recorded every day prior to the blood collection.

By AUC is commonly meant the area under the concentration-time curve, a measure of exposure.

Structures are written as SMILES. Read-outs that look alike come from different tables or passages of the source. Peptide text beside a SMILES is read from it.

With `CC[C@H](C)[C@H](NC(=O)[C@H](Cc1ccc(O)cc1)NC(=O)[C@@H](NC(=O)[C@H](CCCCN)NC(=O)[C@H](Cc1ccc(O)cc1)NC(=O)[C@H](CCC(N)=O)NC(=O)CNC(=O)[C@H](CCC(=O)O)NC(=O)[C@H](CC(C)C)NC(=O)[C@H](CO)NC(=O)[C@H](CC(C)C)NC(=O)[C@H](CO)NC(=O)[C@H](CC(C)C)NC(=O)[C@H](CO)NC(=O)[C@H](CC(C)C)NC(=O)[C@H](CO)NC(=O)[C@H](CC(C)C)NC(=O)[C@H](CO)NC(=O)[C@H](CC(C)C)NC(=O)[C@H](CO)NC(=O)[C@H](CCC(=O)O)NC(C)=O)[C@@H](C)O)C(=O)N[C@@H](CC(=O)O)C(=O)N[C@@H](CCCCN)C(=O)N[C@@H](CC(N)=O)C(=O)N[C@@H](CC(N)=O)C(=O)N[C@@H](Cc1c[nH]cn1)C(=O)N[C@@H](Cc1ccc(O)cc1)C(=O)N[C@@H](C)C(=O)N[C@@H](CCC(=O)O)C(=O)N[C@@H](CC(=O)O)C(=O)N[C@@H](CCC(=O)O)C(=O)N[C@@H](CCCNC(=N)N)C(=O)N[C@@H](Cc1ccc(O)cc1)C(=O)N[C@@H](CCCCN)C(N)=O` [ESBP3] (Ac-ESLSLSLSLSLSLEGQYKTYIDKNNHYAEDERYK-NH2), in series [1], the “Comparative, Average” value is 66.6154; the “inhibition of live virus, in words” value was “dose-dependent inhibition of live virus”; the “live virus plaque inhibition, in words” value was “no major differences”. In the series “Cytocompatibility (CCK8)” (replicate 1, CCK8, 6 h), the viability at 6 h, 10 µM was determined as 91.9% and the viability at 6 h, 100 µM was found to be 87.2%. In addition, in the series “Cytocompatibility (CCK8)” (replicate 2, CCK8, 6 h), the viability at 6 h, 10 µM stood at 85.4%; the viability at 6 h, 100 µM worked out at 97.6%; the viability at 6 h, 1000 µM worked out at 125%. In addition, in the series “Cytocompatibility (CCK8)” (replicate 3, CCK8, 6 h), the viability at 6 h, 100 µM was found to be 85.4% and the viability at 6 h, 1000 µM came out at 119%. Moreover, the viability at 6 h, 1000 µM in “Cytocompatibility (CCK8)” (replicate 1, CCK8, 6 h exposure, absorbance 450 nm) was found to be 106%. The “cytocompatibility, in words” value in the series with A549 cells was “excellent cytocompatibility”. For the same molecule, in series [2], the “eliminated by” value was at most 8 h. In addition, in series [2] (female, rat, plasma, 2 mg, at 5 min, read-out: observed maximum concentration), the Cmax was about 550 µg/mL. For the same molecule, the AUC in series [2] (female, rat, plasma, 2 mg, read-out: AUC) was 395 µg·h/mL.
